Measured values: ChEMBL document CHEMBL5465560, “Selectivity Literature for EUbOPEN Chemogenomic Library” (2024)

Tests used:
[1] = molecular target: Glutamate receptor ionotropic, NMDA 1 (Homo sapiens) (UniProt Q05586); assay: Selectivity interaction (Eurofins CEREP Diversity Profile (receptors and ion channels)) EUB0000279b GRIN1; conditions: at 10 µM
[2] = molecular target: Insulin-like growth factor 1 receptor (Homo sapiens, UniProt P08069); assay: Selectivity interaction (Ambit KINOMEscan and KiNATiv profiling in Jurkat cells) EUB0000090b IGF1R; format: cell-based; conditions: at 1 µM
[3] = molecular target: Ribosomal protein S6 kinase alpha-1 (Homo sapiens, UniProt Q15418); assay: Selectivity interaction (KinomeScan (DiscoverX)) EUB0000618a RPS6KA1; conditions: at 10 µM
Ribosomal protein S6 kinase alpha-1, sequence (Q15418 whole entry): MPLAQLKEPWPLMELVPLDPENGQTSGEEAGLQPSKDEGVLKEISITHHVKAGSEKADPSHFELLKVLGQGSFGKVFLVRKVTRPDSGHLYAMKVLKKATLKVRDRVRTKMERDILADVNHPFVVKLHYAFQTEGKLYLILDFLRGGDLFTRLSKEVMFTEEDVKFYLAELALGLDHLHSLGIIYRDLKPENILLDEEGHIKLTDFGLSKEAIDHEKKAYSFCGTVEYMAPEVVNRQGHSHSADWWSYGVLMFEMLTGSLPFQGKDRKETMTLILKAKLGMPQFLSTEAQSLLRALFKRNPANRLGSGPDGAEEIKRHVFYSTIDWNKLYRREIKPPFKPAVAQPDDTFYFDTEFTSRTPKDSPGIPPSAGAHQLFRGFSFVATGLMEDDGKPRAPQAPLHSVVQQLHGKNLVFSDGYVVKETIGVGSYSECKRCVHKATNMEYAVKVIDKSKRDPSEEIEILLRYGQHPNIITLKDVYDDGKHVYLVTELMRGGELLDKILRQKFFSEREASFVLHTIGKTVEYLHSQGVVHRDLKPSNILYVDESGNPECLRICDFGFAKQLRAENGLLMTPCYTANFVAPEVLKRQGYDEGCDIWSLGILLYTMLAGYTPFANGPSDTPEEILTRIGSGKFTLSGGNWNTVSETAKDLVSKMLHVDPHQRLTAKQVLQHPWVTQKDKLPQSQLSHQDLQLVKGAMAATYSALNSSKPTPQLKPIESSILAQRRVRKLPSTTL

[4] = tested on: Serine/threonine-protein kinase B-raf (Homo sapiens), P15056 [V600E]; assay: Selectivity interaction (KinomeScan (DiscoverX)) EUB0000618a BRAF; conditions: at 10 µM
Serine/threonine-protein kinase B-raf (Homo sapiens), P15056 [V600E], sequence (P15056 whole entry V600E): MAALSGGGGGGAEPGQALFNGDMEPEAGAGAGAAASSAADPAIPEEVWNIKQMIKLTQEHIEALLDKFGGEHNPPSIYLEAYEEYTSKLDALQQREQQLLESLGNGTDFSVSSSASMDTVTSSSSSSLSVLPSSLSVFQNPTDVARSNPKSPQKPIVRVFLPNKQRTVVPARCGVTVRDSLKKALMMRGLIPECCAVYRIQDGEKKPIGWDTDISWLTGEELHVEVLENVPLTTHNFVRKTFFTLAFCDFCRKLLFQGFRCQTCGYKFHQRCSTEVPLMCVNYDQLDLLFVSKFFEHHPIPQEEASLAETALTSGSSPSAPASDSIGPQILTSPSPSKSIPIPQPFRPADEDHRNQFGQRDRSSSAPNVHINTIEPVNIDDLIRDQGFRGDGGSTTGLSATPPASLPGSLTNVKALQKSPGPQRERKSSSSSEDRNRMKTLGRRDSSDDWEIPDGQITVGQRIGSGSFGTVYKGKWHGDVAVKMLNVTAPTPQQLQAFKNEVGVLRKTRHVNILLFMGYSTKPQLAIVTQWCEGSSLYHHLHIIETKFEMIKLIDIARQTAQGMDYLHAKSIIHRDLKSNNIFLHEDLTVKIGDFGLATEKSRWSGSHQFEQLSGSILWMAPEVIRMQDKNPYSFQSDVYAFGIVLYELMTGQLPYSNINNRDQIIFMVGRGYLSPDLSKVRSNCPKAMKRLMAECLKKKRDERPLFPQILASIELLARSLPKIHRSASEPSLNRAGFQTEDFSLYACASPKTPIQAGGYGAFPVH

[5] = molecular target: Tyrosine-protein kinase Fgr (Homo sapiens) (UniProt P09769); assay: Selectivity interaction (ActivX KiNativ screen (ex vivo kinase selectivity in human PBMCs)) EUB0001619a FGR; format: cell-based; conditions: PBMC, at 1 µM
Tyrosine-protein kinase Fgr (Homo sapiens), sequence (P09769 2-529 limits assumed): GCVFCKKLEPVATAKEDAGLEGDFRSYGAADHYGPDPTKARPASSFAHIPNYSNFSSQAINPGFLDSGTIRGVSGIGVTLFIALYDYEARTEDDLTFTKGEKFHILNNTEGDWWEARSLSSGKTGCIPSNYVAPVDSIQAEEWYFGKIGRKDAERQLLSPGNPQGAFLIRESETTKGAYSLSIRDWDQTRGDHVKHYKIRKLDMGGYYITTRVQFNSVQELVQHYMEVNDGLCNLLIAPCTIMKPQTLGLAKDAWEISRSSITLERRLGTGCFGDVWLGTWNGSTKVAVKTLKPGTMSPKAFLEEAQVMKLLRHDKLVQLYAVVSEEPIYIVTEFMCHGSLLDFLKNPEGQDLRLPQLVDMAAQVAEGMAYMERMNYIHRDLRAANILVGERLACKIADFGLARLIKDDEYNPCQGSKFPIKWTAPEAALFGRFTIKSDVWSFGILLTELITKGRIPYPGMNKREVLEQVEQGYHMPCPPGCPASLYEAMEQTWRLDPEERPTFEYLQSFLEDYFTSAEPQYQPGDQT

[6] = molecular target: T1, Serine/threonine-protein kinase LATS1 (Homo sapiens) (UniProt O95835); assay: Selectivity interaction (KinomeScan (DiscoverX)) EUB0001619a LATS1; conditions: at 1 µM
T1 sequence (whole entry): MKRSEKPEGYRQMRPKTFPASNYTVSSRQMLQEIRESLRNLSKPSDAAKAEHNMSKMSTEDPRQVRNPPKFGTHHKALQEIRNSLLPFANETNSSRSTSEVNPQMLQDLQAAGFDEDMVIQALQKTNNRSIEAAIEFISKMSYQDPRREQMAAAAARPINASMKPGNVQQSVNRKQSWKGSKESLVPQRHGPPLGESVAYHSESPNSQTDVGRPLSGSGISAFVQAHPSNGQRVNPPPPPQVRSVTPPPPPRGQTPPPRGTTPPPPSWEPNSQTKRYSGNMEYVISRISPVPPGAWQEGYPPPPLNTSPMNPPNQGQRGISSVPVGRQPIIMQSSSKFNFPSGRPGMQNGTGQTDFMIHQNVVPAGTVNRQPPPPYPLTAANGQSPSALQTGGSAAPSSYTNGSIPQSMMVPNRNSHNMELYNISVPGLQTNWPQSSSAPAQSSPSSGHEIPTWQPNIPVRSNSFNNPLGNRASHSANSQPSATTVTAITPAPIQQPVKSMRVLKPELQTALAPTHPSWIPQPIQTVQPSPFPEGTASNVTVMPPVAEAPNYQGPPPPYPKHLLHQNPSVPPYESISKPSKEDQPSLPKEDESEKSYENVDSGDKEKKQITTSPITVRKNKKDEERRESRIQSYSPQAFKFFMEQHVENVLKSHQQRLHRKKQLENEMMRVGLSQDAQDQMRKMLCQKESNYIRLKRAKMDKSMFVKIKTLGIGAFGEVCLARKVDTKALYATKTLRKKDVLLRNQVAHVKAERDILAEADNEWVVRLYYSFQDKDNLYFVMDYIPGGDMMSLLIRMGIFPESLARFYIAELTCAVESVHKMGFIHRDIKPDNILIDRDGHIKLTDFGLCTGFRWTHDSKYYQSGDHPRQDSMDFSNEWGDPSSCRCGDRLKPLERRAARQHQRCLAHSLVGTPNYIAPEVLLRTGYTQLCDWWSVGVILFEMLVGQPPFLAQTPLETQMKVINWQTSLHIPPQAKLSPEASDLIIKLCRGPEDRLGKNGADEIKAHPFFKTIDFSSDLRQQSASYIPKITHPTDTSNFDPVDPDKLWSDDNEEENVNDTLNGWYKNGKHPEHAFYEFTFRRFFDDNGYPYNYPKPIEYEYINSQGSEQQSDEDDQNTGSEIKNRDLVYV

[7] = molecular target: Serine/threonine-protein kinase 16 (Homo sapiens, UniProt O75716); assay: Selectivity interaction (ActivX KiNativ screen (ex vivo kinase selectivity in human PBMCs)) EUB0001619a STK16; format: cell-based; conditions: PBMC, at 1 µM
[8] = molecular target: Calcium/calmodulin-dependent protein kinase type II subunit gamma (Homo sapiens) (UniProt Q13555); assay: Selectivity interaction (KinomeScan (DiscoverX)) EUB0000045b CAMK2G
Calcium/calmodulin-dependent protein kinase type II subunit gamma (Homo sapiens), sequence (Q13555 whole entry): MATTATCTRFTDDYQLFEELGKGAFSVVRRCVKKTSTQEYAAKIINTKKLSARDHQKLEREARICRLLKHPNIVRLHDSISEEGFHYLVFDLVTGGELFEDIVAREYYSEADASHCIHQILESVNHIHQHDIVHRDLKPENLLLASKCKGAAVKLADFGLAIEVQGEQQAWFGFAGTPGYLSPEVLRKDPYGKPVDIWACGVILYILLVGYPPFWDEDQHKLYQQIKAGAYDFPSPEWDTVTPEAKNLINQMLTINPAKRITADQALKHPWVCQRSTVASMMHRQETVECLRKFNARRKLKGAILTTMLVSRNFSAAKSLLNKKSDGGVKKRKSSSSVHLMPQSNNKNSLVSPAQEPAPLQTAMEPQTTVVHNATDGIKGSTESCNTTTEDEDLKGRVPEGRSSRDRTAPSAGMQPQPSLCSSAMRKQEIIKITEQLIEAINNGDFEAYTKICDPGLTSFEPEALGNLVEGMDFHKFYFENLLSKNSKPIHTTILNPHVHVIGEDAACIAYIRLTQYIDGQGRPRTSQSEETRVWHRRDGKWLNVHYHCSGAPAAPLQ

[9] = molecular target: Cyclin-dependent kinase 5/CDK5 activator 1 (Homo sapiens) (UniProt Q00535+Q15078); assay: Selectivity interaction (Upstate Kinase Profiler service (Millipore)) EUB0000056c CDK5; format: protein-complex assay; conditions: at 1 µM
Cyclin-dependent kinase 5/CDK5 activator 1 (Homo sapiens), sequence (Q00535 whole entry): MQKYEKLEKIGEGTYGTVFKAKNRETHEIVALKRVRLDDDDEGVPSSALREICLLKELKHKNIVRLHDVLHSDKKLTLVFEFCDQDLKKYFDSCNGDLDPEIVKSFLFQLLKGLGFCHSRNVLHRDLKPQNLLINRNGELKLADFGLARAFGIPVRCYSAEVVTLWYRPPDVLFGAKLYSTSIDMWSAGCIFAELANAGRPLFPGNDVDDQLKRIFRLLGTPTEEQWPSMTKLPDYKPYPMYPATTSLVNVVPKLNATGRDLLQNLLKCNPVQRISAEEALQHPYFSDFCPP
Cyclin-dependent kinase 5/CDK5 activator 1 (Homo sapiens), sequence (Q15078 99-307 partner limits assumed): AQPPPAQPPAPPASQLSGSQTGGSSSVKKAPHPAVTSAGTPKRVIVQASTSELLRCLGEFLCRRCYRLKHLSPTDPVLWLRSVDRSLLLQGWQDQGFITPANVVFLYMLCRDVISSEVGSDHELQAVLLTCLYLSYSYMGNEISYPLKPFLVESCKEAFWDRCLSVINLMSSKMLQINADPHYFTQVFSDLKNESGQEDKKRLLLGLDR

[10] = molecular target: Hepatocyte growth factor-like protein (Homo sapiens) (UniProt P26927); conditions: at 10 µM
[11] = molecular target: RAC-gamma serine/threonine-protein kinase (Homo sapiens, UniProt Q9Y243); conditions: at 10 µM
[12] = molecular target: Protein kinase C delta type (Homo sapiens) (UniProt Q05655); assay: Selectivity interaction (KinomeScan (DiscoverX)) EUB0001049a PRKCD; conditions: at 1 µM
[13] = molecular target: T2, Alpha-2C adrenergic receptor (Homo sapiens) (UniProt P18825); assay: Selectivity interaction (Panel of kinases, GPCRs, ion channels and transporters (enzymatic assay)) EUB0000223bCl ADRA2C
T2 sequence (whole entry): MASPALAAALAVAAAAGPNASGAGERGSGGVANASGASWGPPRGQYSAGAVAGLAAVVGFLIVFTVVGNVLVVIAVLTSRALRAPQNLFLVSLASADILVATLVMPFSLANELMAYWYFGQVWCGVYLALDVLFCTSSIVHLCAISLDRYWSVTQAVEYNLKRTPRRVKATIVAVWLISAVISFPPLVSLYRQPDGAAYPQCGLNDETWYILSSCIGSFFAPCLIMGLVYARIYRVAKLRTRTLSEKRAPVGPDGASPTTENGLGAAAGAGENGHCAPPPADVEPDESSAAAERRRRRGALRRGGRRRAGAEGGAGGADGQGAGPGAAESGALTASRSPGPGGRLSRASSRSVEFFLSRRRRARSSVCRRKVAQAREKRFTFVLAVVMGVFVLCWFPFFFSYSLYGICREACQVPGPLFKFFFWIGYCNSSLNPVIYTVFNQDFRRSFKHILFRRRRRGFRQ

[14] = tested on: Mast/stem cell growth factor receptor Kit (Homo sapiens), P10721 [D816V]; assay: (§1) Selectivity interaction (KinomeScan (DiscoverX)) EUB0000666a KIT; conditions: at 10 µM
[15] = tested on: Mast/stem cell growth factor receptor Kit (Homo sapiens), P10721 [L576P]; assay: as §1; conditions: at 10 µM
[16] = tested on: Mast/stem cell growth factor receptor Kit (Homo sapiens), P10721 [V559D]; assay: as §1; conditions: at 10 µM
Mast/stem cell growth factor receptor Kit (Homo sapiens), P10721 [V559D], sequence (P10721 whole entry V559D): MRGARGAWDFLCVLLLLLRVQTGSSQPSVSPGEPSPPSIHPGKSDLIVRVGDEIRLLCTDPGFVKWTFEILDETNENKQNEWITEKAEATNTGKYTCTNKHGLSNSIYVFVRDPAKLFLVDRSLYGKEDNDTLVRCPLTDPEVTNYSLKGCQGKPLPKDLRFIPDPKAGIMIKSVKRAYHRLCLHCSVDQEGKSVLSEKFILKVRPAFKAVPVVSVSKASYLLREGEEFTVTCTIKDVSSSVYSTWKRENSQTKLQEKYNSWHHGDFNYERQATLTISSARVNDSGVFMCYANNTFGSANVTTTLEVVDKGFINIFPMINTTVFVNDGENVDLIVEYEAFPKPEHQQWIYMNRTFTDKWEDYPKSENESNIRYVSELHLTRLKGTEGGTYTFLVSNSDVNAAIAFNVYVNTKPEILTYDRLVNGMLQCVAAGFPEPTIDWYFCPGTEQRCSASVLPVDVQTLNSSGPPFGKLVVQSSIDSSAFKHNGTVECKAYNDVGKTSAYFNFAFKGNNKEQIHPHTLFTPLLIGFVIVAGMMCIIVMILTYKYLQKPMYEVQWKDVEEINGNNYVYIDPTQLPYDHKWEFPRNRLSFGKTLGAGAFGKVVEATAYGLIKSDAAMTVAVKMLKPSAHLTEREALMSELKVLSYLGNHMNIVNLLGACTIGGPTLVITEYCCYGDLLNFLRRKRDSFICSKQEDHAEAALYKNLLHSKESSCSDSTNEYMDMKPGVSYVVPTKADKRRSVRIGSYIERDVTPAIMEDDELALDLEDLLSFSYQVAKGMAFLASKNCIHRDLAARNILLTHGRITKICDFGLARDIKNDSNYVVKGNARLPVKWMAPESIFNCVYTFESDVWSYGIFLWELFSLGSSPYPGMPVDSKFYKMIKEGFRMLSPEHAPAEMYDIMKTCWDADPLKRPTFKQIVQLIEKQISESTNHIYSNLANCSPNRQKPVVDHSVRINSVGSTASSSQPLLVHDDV

[17] = tested on: Mast/stem cell growth factor receptor Kit (Homo sapiens), P10721 [V559D,V654A]; assay: as §1; conditions: at 10 µM
Mast/stem cell growth factor receptor Kit (Homo sapiens), P10721 [V559D,V654A], sequence (P10721 whole entry V559D/V654A): as the sequence (P10721 whole entry V559D) above, with V654A counted along it

[18] = tested on: Mast/stem cell growth factor receptor Kit (Homo sapiens), P10721 [D816H]; assay: as §1; conditions: at 10 µM
[19] = tested on: Mast/stem cell growth factor receptor Kit (Homo sapiens), P10721 [V559D,T670I]; assay: as §1; conditions: at 10 µM
[20] = molecular target: Mast/stem cell growth factor receptor Kit (Homo sapiens, UniProt P10721); assay: as §1; conditions: at 10 µM
[21] = molecular target: Calcium/calmodulin-dependent protein kinase type II subunit delta (Homo sapiens) (UniProt Q13557); assay: Selectivity interaction (Kinase panel (Z-LYTE Assay)) EUB0001632a CAMK2D; conditions: at 10 µM

Structure (SMILES): CC(=O)c1cc(-c2ccccc2OCC2CC2)c2ncccn12
- % of control [1]: 106%

Structure (SMILES): CN(C)C/C=C/C(=O)Nc1ccc(C(=O)N2CCCC(Nc3ncc(Cl)c(-c4c[nH]c5ccccc45)n3)C2)cc1 (configuration not stated)
- % of control [2]: 91%

Structure (SMILES): O[C@H]1CC[C@H](Nc2ncc3nc(Nc4c(F)cc(F)cc4F)n([C@H]4CCOC4)c3n2)CC1
- % of control [3]: 98%
- % of control [4]: 98%

Structure (SMILES): N#Cc1cccc(-c2c[nH]c3ncnc(N4CCOCC4)c23)c1
- % of inhibition [5]: 2%
- % of control [6]: 100%
- % of inhibition [7]: 63%

Structure (SMILES): C=CC(=O)Nc1cc(-n2c(=O)ccc3cnc4ccc(-c5ccc(NS(C)(=O)=O)cc5)cc4c32)ccc1C
- % of control ([8]; at 1 µM): 100%
- % of control ([8]; at 10 µM): 96%

Structure (SMILES): Cc1ccc(-c2ccc3c(ccc4sc5c(c43)NC[C@@H](C)NC5=O)n2)cn1
- % of inhibition [9]: 62%

Structure (SMILES): Cc1cc([C@@H](C)Nc2ccccc2C(=O)O)c2nc(N3CCOCC3)cc(=O)n2c1 [AZD-6482]
- % of control [10]: 95%
- % of control [11]: 100%

Structure (SMILES): COc1cc(Nc2nc(C)cc(-c3cnn4nc(OC)ccc34)n2)cc(C(F)(F)F)c1
- % of control [12]: 97%

Structure (SMILES): COc1cc(C(=O)N2CC[C@@H](O)[C@@H](N)C2)cc2nc(-c3cc4ccccc4n3CC3CC3)n(C)c12
- pXC50 [13]: < 4.5 M

Structure (SMILES): O=C(NOC[C@H](O)CO)c1ccc(F)c(F)c1Nc1ccc(I)cc1F
- % of control [14]: 87%
- % of control [15]: 75%
- % of control [16]: 74%
- % of control [17]: 100%
- % of control [18]: 91%
- % of control [19]: 90%
- % of control [20]: 92%

Structure (SMILES): Cn1cc(-n2cnc3c(NCc4nc5cc(Cl)c(Cl)cc5[nH]4)nc(N4CCOCC4)nc32)cn1
- % of control [21]: -1.23%
